EP4011354A1, “NEW COSMETICS SOLVENTS BASED ON TWO DIFFERENT COMPONENTS” (priority 2020, dated 2022)
Values after ≈ are worked out from the molar mass of the structure shown. Read-outs that look alike come from different tables or passages of the source. Values belong to the compound of their own block, whether it stands above or below them.

Key:
[1] = In vivo sweat reduction test; details: Betaine-Glycerine (molar ratios 1:3), 10,5 wt.% calcium lactate, 37,5 wt.% water (figure 2)
[2] = Solubility of actives in water and in eutectic solvents; assay type: physicochemical; details: for solubility: water
From the text: Following is shown some examples for actives solubilization: • Dihydromyricetin • ∘ Solubility in Water 0.09% wt. • ∘ Solubility in Betaine:Urea 2:3 > 0.5% wt • ∘ Solubility in Betaine:Glucose 1:1 > 0.5% wt • ∘ Solubility in Betaine:Malic Acid 1:1 > 0.5% wt • ∘ Solubility in Proline:Sorbitol 1:1 > 0.5% wt • ∘ • Folic Acid • ∘ Solubility in Water 0.00016% wt. • ∘ Solubility in Betaine:Glycerol 1:3 > 1% wt • Thiamidol • ∘ Solubility in Water 0.017% wt. • ∘ Solubility in Betaine:Glycerol 1:3 > 2% wt

[3] = Stability of 5 % vitamin C solutions in eutectic solvents versus water; assay type: physicochemical; details: 40 degrees, after 16 weeks
[4] = Liberation of actives and dermal penetration (pig-skin penetration test); details: 0,5% solution in betaine : malic acid (1:1 + 20% water; NADES)
Experimental: Actives liberation and dermal penetration behavior were evaluated for a 0,5% caffeine solution in an inventive eutectic solvent, betaine : malic acid (1:1 + 20% water; NADES).

SMILES: CC(O)C(=O)O (centres unmarked) [calcium lactate]
- sweat reduction [1]: sweat reduction

- Solubility in Betaine:Glycerol 1:3 [2]: > 1 % wt
- solubility ([2]; read-out: Solubility in Water): 1.6 µg/mL (≈ 3.62 µM)
SMILES: Nc1nc2ncc(CNc3ccc(C(=O)N[C@@H](CCC(=O)O)C(=O)O)cc3)nc2c(=O)[nH]1 [Folic Acid]

- Solubility in Betaine:Glucose 1:1 [2]: > 0.5 % wt
- Solubility in Betaine:Malic Acid 1:1 [2]: > 0.5 % wt
- Solubility in Betaine:Urea 2:3 [2]: > 0.5 % wt
- Solubility in Proline:Sorbitol 1:1 [2]: > 0.5 % wt
- solubility [2]: 900 µg/mL (≈ 2810 µM)
SMILES: O=C1c2c(O)cc(O)cc2O[C@H](c2cc(O)c(O)c(O)c2)[C@H]1O [Dihydromyricetin]

- remaining at 2688 h ([3]; in the eutectic solvents (table 1, B-F), read-out: active still intact): ≤ 82%
- remaining at 2688 h ([3]; water, aqueous solution, read-out: initial vitamin C still measurable): 10%
SMILES: O=C1O[C@H]([C@@H](O)CO)C(O)=C1O [vitamin C, ascorbic acid]

SMILES: Cn1c(=O)c2c(ncn2C)n(C)c1=O [caffeine]
- dermal absorption ([4]; compared to the water solution): lower
- liberation over time ([4]; compared to the water solution (figure 4)): surprisingly lower

- Solubility in Betaine:Glycerol 1:3 [2]: > 2 % wt
- solubility ([2]; read-out: Solubility in Water): 170 µg/mL (≈ 611 µM)
SMILES: CC(C)C(=O)Nc1nc(-c2ccc(O)cc2O)cs1 [Thiamidol, Isobutylamido Thiazolyl Resorcinol]
